Common to all, as to format: cell-based
Conditions in all cases: 24 h incubation, visual reading

Assay [1] relates to Staphylococcus aureus MRSA ATCC 43300. Kind of assay: MIC assay, S. aureus MRSA ATCC 43300. In outline: (§1)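 Twofold broth microdilution in Mueller Hinton broth; compounds tested from 8 μg/ml to 0.003 μg/ml. Mid-log cultures were inoculated at 5×10e5 CFU/mL and incubated 24 h at 37° C. MIC was the lowest concentration with no visible growth.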
The subject of assay [2] is Enterococcus faecium MDR Van A ATCC 51559. Kind of assay: MIC assay, E. faecium MDR Van A ATCC 51559. Summed up: as §1
The subject of assay [3] is Streptococcus pneumoniae MDR ATCC 700677. In words: MIC assay, S. pneumoniae MDR ATCC 700677. In outline:
as §1

Regarding `CCCCCCCCCN1CCC(C(=O)N[C@@H](CCCCN)C(=O)N[C@@H](CCCCNC(=O)[C@H]2NC(=O)[C@H]3NC(=O)[C@H](NC(=O)[C@@H]4NC(=O)[C@H](CC(N)=O)NC(=O)[C@H](NC(=O)[C@@H](CC(C)C)NC)[C@H](O)c5ccc(c(Cl)c5)Oc5cc4cc(c5O[C@@H]4O[C@H](CO)[C@@H](O)[C@H](O)[C@H]4O[C@H]4C[C@](C)(N)[C@H](O)[C@H](C)O4)Oc4ccc(cc4Cl)[C@H]3O)c3ccc(O)c(c3)-c3c(O)cc(O)cc32)C(N)=O)CC1` [MCC_004825], the “Minimum Inhibitory Concentration (MIC) Staph. aureus ATCC43300” value in assay [1] is “xxxx (xxxx = 0.01-<0.1)”. In assay [2], the “Minimum Inhibitory Concentration (MIC) E. faecium ATCC51559” value was “xxx (xxx = 0.1-<1)”. Further, in assay [3], the “Minimum Inhibitory Concentration (MIC) S. pneumoniae ATCC 700677” value is recorded as “xxx (xxx = 0.1-<1)”.

Consider `CNC(=O)[C@H](CCCCNC(=O)[C@H]1NC(=O)[C@H]2NC(=O)[C@H](NC(=O)[C@@H]3NC(=O)[C@H](CC(N)=O)NC(=O)[C@H](NC(=O)[C@@H](CC(C)C)NC)[C@H](O)c4ccc(c(Cl)c4)Oc4cc3cc(c4O[C@@H]3O[C@H](CO)[C@@H](O)[C@H](O)[C@H]3O[C@H]3C[C@](C)(N)[C@H](O)[C@H](C)O3)Oc3ccc(cc3Cl)[C@H]2O)c2ccc(O)c(c2)-c2c(O)cc(O)cc21)NC(=O)[C@H](CCCCN)NC(=O)[C@H](CCCCN)NC(=O)CNC(=O)c1ccc(Oc2ccccc2)cc1` [MCC_000647], for which, in assay [1], the “Minimum Inhibitory Concentration (MIC) Staph. aureus ATCC43300” value was “xxx (xxx = 0.1-<1)”. Moreover, the “Minimum Inhibitory Concentration (MIC) E. faecium ATCC51559” value in assay [2] is given as “x (x = >4)”. Moreover, the “Minimum Inhibitory Concentration (MIC) S. pneumoniae ATCC 700677” value in assay [3] was “xxx (xxx = 0.1-<1)”.

Turning to `CCCCCCCCCCCN1CCC(C(=O)N[C@@H](CCCCN)C(=O)N[C@@H](CCCCN)C(=O)N[C@@H](CCCCNC(=O)[C@H]2NC(=O)[C@H]3NC(=O)[C@H](NC(=O)[C@@H]4NC(=O)[C@H](CC(N)=O)NC(=O)[C@H](NC(=O)[C@@H](CC(C)C)NC)[C@H](O)c5ccc(c(Cl)c5)Oc5cc4cc(c5O[C@@H]4O[C@H](CO)[C@@H](O)[C@H](O)[C@H]4O[C@H]4C[C@](C)(N)[C@H](O)[C@H](C)O4)Oc4ccc(cc4Cl)[C@H]3O)c3ccc(O)c(c3)-c3c(O)cc(O)cc32)C(N)=O)CC1` [MCC_004818], in assay [1], the “Minimum Inhibitory Concentration (MIC) Staph. aureus ATCC43300” value is reported as “xxxx (xxxx = 0.01-<0.1)”. Moreover, in assay [2], the “Minimum Inhibitory Concentration (MIC) E. faecium ATCC51559” value is listed as “xxx (xxx = 0.1-<1)”. In addition, in assay [3], the “Minimum Inhibitory Concentration (MIC) S. pneumoniae ATCC 700677” value is listed as “xxxx (xxxx = 0.01-<0.1)”.

Consider `CNC(=O)C(CCCCNC(=O)C1NC(=O)C2NC(=O)C(NC(=O)C3NC(=O)C(CC(N)=O)NC(=O)C(NC(=O)C(CC(C)C)NC)C(O)c4ccc(c(Cl)c4)Oc4cc3cc(c4OC3OC(CO)C(O)C(O)C3OC3CC(C)(N)C(O)C(C)O3)Oc3ccc(cc3Cl)C2O)c2ccc(O)c(c2)-c2c(O)cc(O)cc21)NC(=O)C(CCCCN)NC(=O)C(CCCCN)NC(=O)c1ccc(Oc2ccc(Cl)cc2)cc1` (stereo not drawn) [MCC_000516], for which the “Minimum Inhibitory Concentration (MIC) Staph. aureus ATCC43300” value in assay [1] is on record as “xxxxxx”. In assay [2], the “Minimum Inhibitory Concentration (MIC) E. faecium ATCC51559” value is “x (x = >4)”. Also, in assay [3], the “Minimum Inhibitory Concentration (MIC) S. pneumoniae ATCC 700677” value was “xxxxx (xxxxx = <0.01)”.

As for `CCCCCCCCCCCC(=O)NC(CCCCN)C(=O)NC(CCCCN)C(=O)NC(CCCCNC(=O)C1NC(=O)C2NC(=O)C(NC(=O)C3NC(=O)C(CC(N)=O)NC(=O)C(NC(=O)C(CC(C)C)NC)C(O)c4ccc(c(Cl)c4)Oc4cc3cc(c4OC3OC(CO)C(O)C(O)C3OC3CC(C)(N)C(O)C(C)O3)Oc3ccc(cc3Cl)C2O)c2ccc(O)c(c2)-c2c(O)cc(O)cc21)C(=O)NC` (stereo not drawn) [MCC_000493], the “Minimum Inhibitory Concentration (MIC) Staph. aureus ATCC43300” value in assay [1] was “xxxxx (xxxxx = <0.01)”. Also, the “Minimum Inhibitory Concentration (MIC) E. faecium ATCC51559” value in assay [2] is “xx (xx = 1-4)”. For the same molecule, the “Minimum Inhibitory Concentration (MIC) S. pneumoniae ATCC 700677” value in assay [3] is listed as “xxxxx (xxxxx = <0.01)”.

Consider `CCCCCCCC(=O)N[C@@H](CCCCN)C(=O)N[C@@H](CCCCN)C(=O)NCCCNC(=O)[C@H]1NC(=O)[C@H]2NC(=O)[C@H](NC(=O)[C@@H]3NC(=O)[C@H](CC(N)=O)NC(=O)[C@H](NC(=O)[C@@H](CC(C)C)NC)[C@H](O)c4ccc(c(Cl)c4)Oc4cc3cc(c4O[C@@H]3O[C@H](CO)[C@@H](O)[C@H](O)[C@H]3O[C@H]3C[C@](C)(N)[C@H](O)[C@H](C)O3)Oc3ccc(cc3Cl)[C@H]2O)c2ccc(O)c(c2)-c2c(O)cc(O)cc21` [MCC_005196], for which the “Minimum Inhibitory Concentration (MIC) Staph. aureus ATCC43300” value in assay [1] was “xxx (xxx = 0.1-<1)”. Besides, the “Minimum Inhibitory Concentration (MIC) E. faecium ATCC51559” value in assay [2] is “xx (xx = 1-4)”. Besides, in assay [3], the “Minimum Inhibitory Concentration (MIC) S. pneumoniae ATCC 700677” value is “xxx (xxx = 0.1-<1)”.

With `CNc1ccc(C(=O)N[C@@H](CCCCN)C(=O)N[C@@H](CCCCN)C(=O)N[C@@H](CCCCNC(=O)[C@H]2NC(=O)[C@H]3NC(=O)[C@H](NC(=O)[C@@H]4NC(=O)[C@H](CC(N)=O)NC(=O)[C@H](NC(=O)[C@@H](CC(C)C)NC)[C@H](O)c5ccc(c(Cl)c5)Oc5cc4cc(c5O[C@@H]4O[C@H](CO)[C@@H](O)[C@H](O)[C@H]4O[C@H]4C[C@](C)(N)[C@H](O)[C@H](C)O4)Oc4ccc(cc4Cl)[C@H]3O)c3ccc(O)c(c3)-c3c(O)cc(O)cc32)C(N)=O)cc1` [MCC_004822], the “Minimum Inhibitory Concentration (MIC) Staph. aureus ATCC43300” value in assay [1] is reported as “xxx (xxx = 0.1-<1)”. Moreover, the “Minimum Inhibitory Concentration (MIC) E. faecium ATCC51559” value in assay [2] is given as “x (x = >4)”. In assay [3], the “Minimum Inhibitory Concentration (MIC) S. pneumoniae ATCC 700677” value is “xx (xx = 1-4)”.

As to `CCCCCCCCCCCCCC(=O)N[C@@H](CCCCN)C(=O)N[C@@H](CCCCNC(=O)[C@H]1NC(=O)[C@H]2NC(=O)[C@H](NC(=O)[C@@H]3NC(=O)[C@H](CC(N)=O)NC(=O)[C@H](NC(=O)[C@@H](CC(C)C)NC)[C@H](O)c4ccc(c(Cl)c4)Oc4cc3cc(c4O[C@@H]3O[C@H](CO)[C@@H](O)[C@H](O)[C@H]3O[C@H]3C[C@](C)(N)[C@H](O)[C@H](C)O3)Oc3ccc(cc3Cl)[C@H]2O)c2ccc(O)c(c2)-c2c(O)cc(O)cc21)C(=O)NC` [MCC_000627], the “Minimum Inhibitory Concentration (MIC) Staph. aureus ATCC43300” value in assay [1] was “xxxxx (xxxxx = <0.01)”. Moreover, the “Minimum Inhibitory Concentration (MIC) E. faecium ATCC51559” value in assay [2] is reported as “xx (xx = 1-4)”. Also, the “Minimum Inhibitory Concentration (MIC) S. pneumoniae ATCC 700677” value in assay [3] is “xxxxx (xxxxx = <0.01)”.

As to `CCCCCCCCCCC(=O)N[C@@H](CCCCN)C(=O)N[C@@H](CCCCN)C(=O)N[C@@H](CCCCN)C(=O)NCCNC(=O)[C@H]1NC(=O)[C@H]2NC(=O)[C@H](NC(=O)[C@@H]3NC(=O)[C@H](CC(N)=O)NC(=O)[C@H](NC(=O)[C@@H](CC(C)C)NC)[C@H](O)c4ccc(c(Cl)c4)Oc4cc3cc(c4O[C@@H]3O[C@H](CO)[C@@H](O)[C@H](O)[C@H]3O[C@H]3C[C@](C)(N)[C@H](O)[C@H](C)O3)Oc3ccc(cc3Cl)[C@H]2O)c2ccc(O)c(c2)-c2c(O)cc(O)cc21` [MCC_005182], the “Minimum Inhibitory Concentration (MIC) Staph. aureus ATCC43300” value in assay [1] is on record as “xxxxx (xxxxx = <0.01)”. The “Minimum Inhibitory Concentration (MIC) E. faecium ATCC51559” value in assay [2] is reported as “xx (xx = 1-4)”. Further, in assay [3], the “Minimum Inhibitory Concentration (MIC) S. pneumoniae ATCC 700677” value is listed as “xxxx (xxxx = 0.01-<0.1)”.

For `CCCCCCCC(=O)N[C@@H](CCCCN)C(=O)N[C@@H](CCCCN)C(=O)N[C@@H](CCCCNC(=O)[C@H]1NC(=O)[C@H]2NC(=O)[C@H](NC(=O)[C@@H]3NC(=O)[C@H](CC(N)=O)NC(=O)[C@H](NC(=O)[C@@H](CC(C)C)NC)[C@H](O)c4ccc(c(Cl)c4)Oc4cc3cc(c4O[C@@H]3O[C@H](CO)[C@@H](O)[C@H](O)[C@H]3O[C@H]3C[C@](C)(N)[C@H](O)[C@H](C)O3)Oc3ccc(cc3Cl)[C@H]2O)c2ccc(O)c(c2)-c2c(O)cc(O)cc21)C(=O)O` [MCC_005225], the “Minimum Inhibitory Concentration (MIC) Staph. aureus ATCC43300” value in assay [1] is given as “xx (xx = 1-4)”. In assay [2], the “Minimum Inhibitory Concentration (MIC) E. faecium ATCC51559” value is “x (x = >4)”. Moreover, the “Minimum Inhibitory Concentration (MIC) S. pneumoniae ATCC 700677” value in assay [3] was “xx (xx = 1-4)”.

For `CCCCCCCCCC(=O)N[C@@H](CCCCN(CC)CC)C(=O)N[C@@H](CCCCNC(=O)[C@H]1NC(=O)[C@H]2NC(=O)[C@H](NC(=O)[C@@H]3NC(=O)[C@H](CC(N)=O)NC(=O)[C@H](NC(=O)[C@@H](CC(C)C)NC)[C@H](O)c4ccc(c(Cl)c4)Oc4cc3cc(c4O[C@@H]3O[C@H](CO)[C@@H](O)[C@H](O)[C@H]3O[C@H]3C[C@](C)(N)[C@H](O)[C@H](C)O3)Oc3ccc(cc3Cl)[C@H]2O)c2ccc(O)c(c2)-c2c(O)cc(O)cc21)C(=O)O` [MCC_007330], the “Minimum Inhibitory Concentration (MIC) Staph. aureus ATCC43300” value in assay [1] is “xxx (xxx = 0.1-<1)”. In assay [2], the “Minimum Inhibitory Concentration (MIC) E. faecium ATCC51559” value is listed as “x (x = >4)”. Further, the “Minimum Inhibitory Concentration (MIC) S. pneumoniae ATCC 700677” value in assay [3] is “xxx (xxx = 0.1-<1)”.

For the molecule `CCCCCCCN1CCC(C(=O)N[C@@H](CCCCN)C(=O)N[C@@H](CCCCN)C(=O)N[C@@H](CCCCNC(=O)[C@H]2NC(=O)[C@H]3NC(=O)[C@H](NC(=O)[C@@H]4NC(=O)[C@H](CC(N)=O)NC(=O)[C@H](NC(=O)[C@@H](CC(C)C)NC)[C@H](O)c5ccc(c(Cl)c5)Oc5cc4cc(c5O[C@@H]4O[C@H](CO)[C@@H](O)[C@H](O)[C@H]4O[C@H]4C[C@](C)(N)[C@H](O)[C@H](C)O4)Oc4ccc(cc4Cl)[C@H]3O)c3ccc(O)c(c3)-c3c(O)cc(O)cc32)C(N)=O)CC1` [MCC_004820], the “Minimum Inhibitory Concentration (MIC) Staph. aureus ATCC43300” value in assay [1] is given as “xxxx (xxxx = 0.01-<0.1)”. Moreover, the “Minimum Inhibitory Concentration (MIC) E. faecium ATCC51559” value in assay [2] is reported as “x (x = >4)”. Also, the “Minimum Inhibitory Concentration (MIC) S. pneumoniae ATCC 700677” value in assay [3] is “xxx (xxx = 0.1-<1)”.

`CCCCCCCCCCC(=O)N[C@@H](CCCCN)C(=O)N[C@@H](CCCCN)C(=O)N[C@@H](CCCCNC(=O)CNC(=O)[C@H]1NC(=O)[C@H]2NC(=O)[C@H](NC(=O)[C@@H]3NC(=O)[C@H](CC(N)=O)NC(=O)[C@H](NC(=O)[C@@H](CC(C)C)NC)[C@H](O)c4ccc(c(Cl)c4)Oc4cc3cc(c4O[C@@H]3O[C@H](CO)[C@@H](O)[C@H](O)[C@H]3O[C@H]3C[C@](C)(N)[C@H](O)[C@H](C)O3)Oc3ccc(cc3Cl)[C@H]2O)c2ccc(O)c(c2)-c2c(O)cc(O)cc21)C(=O)O` [MCC_000225]: the “Minimum Inhibitory Concentration (MIC) Staph. aureus ATCC43300” value in assay [1] is on record as “xxx (xxx = 0.1-<1)”. The “Minimum Inhibitory Concentration (MIC) E. faecium ATCC51559” value in assay [2] is “x (x = >4)”. Besides, the “Minimum Inhibitory Concentration (MIC) S. pneumoniae ATCC 700677” value in assay [3] is “xxx (xxx = 0.1-<1)”.

These data come from patent US10947271B2, “Antibacterial agents” (THE UNIVERSITY OF QUEENSLAND, priority 2014, dated 2021).
